The values below come from ChEMBL document CHEMBL1909046, “DrugMatrix in vitro pharmacology data”.

Data set [1] can be described thus: DRUGMATRIX: Tumor Necrosis Factor (TNF), Non-Selective radioligand binding (ligand: [125I] TNF-alpha). The settings on record: u-937; Not Active = under 50% inhibition at 10 µM. It is filed as cell membranes, Membrane.
Data set [2] is described as follows: DRUGMATRIX: Calcium Channel Type L, Phenylalkylamine radioligand binding (ligand: [3H] (-)-Desmethoxyverapamil (D-888)). The settings on record: Not Active = under 50% inhibition at 10 µM. The data set is classed as cell membranes, Rattus norvegicus, Wistar, Brain, Membrane.
Data set [3] is described as follows: DRUGMATRIX: GABAA, Chloride Channel, TBOB radioligand binding (ligand: [3H] TBOB). The note with it: Not Active = under 50% inhibition at 10 µM. The data set is classed as cell membranes, Rattus norvegicus, Wistar, Cerebral cortex, Membrane.
Data set [4] in a line: DRUGMATRIX: Imidazoline I2, Central radioligand binding (ligand: [3H] Idazoxan). It is filed as cell membranes, Rattus norvegicus, Wistar, Cerebral cortex, Membrane. The note with it: Not Active = under 50% inhibition at 10 µM.
Data set [5] is described as follows: DRUGMATRIX: Leukotriene, BLT (LTB4) radioligand binding (ligand: [3H]LTB4). The data set is classed as cell membranes, Membrane. The note with it: u-937, Not Active = under 50% inhibition at 10 µM.
The nature of data set [6]: DRUGMATRIX: Purinergic P2X radioligand binding (ligand: [3H] alpha, beta-Methylene-ATP). The data set is classed as cell membranes, Oryctolagus cuniculus, New Zealand albino, Urinary bladder, Membrane. The note with it: Not Active = under 50% inhibition at 10 µM.
For another data set, the target named is Cytochrome P450 2C19 (Homo sapiens, UniProt P33261). The note with it: bti-tn-5b1-4.
Sequence of Cytochrome P450 2C19 (P33261 whole entry): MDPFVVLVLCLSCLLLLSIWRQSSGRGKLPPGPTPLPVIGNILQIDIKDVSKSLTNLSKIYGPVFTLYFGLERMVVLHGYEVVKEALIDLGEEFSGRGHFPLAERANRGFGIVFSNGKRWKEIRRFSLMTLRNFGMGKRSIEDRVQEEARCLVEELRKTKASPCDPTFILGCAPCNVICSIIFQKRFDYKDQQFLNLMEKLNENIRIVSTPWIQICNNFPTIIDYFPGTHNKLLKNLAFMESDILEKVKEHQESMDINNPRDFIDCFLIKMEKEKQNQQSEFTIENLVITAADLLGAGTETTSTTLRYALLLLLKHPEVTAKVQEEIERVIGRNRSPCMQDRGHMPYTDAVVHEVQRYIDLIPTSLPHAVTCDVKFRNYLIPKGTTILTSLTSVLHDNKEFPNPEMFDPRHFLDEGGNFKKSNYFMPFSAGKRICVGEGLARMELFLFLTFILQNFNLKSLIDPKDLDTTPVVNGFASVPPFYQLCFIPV

Each structure is given as a SMILES string.

For `CCCCC(=O)N(Cc1ccc(-c2ccccc2-c2nnn[nH]2)cc1)[C@H](C(=O)O)C(C)C`, the IC50 entry in data set [1], in data set [2], in data set [3], in data set [4], in data set [5] and in data set [6] was “Not Active” in each case. Besides, the IC50 (as a rule, the concentration that inhibits the measured activity by half) against Cytochrome P450 2C19 is reported as “Not Active”. The inhibition constant (Ki) result in data set [1], in data set [2], in data set [3], in data set [4], in data set [5] and in data set [6] was “Not Active” in each case. The Ki (in general, the dissociation constant of the complex between target and ligand, obtained from inhibition or displacement) on Cytochrome P450 2C19 is recorded as “Not Active”.

For `O=C(O)COc1ccc(C(=O)c2cccs2)c(Cl)c1Cl`, the IC50 result in data set [1], in data set [2], in data set [3], in data set [4], in data set [5] and in data set [6] was “Not Active” throughout. Moreover, the IC50 entry on Cytochrome P450 2C19 is “Not Active”. Moreover, the Ki entry in data set [1], in data set [2], in data set [3], in data set [4], in data set [5] and in data set [6] was “Not Active” throughout. For the same molecule, the inhibition constant Ki result at Cytochrome P450 2C19 is reported as “Not Active”.

Regarding `CN1[C@@H]2CC[C@H]1C[C@@H](OC(c1ccccc1)c1ccccc1)C2` [BENZTROPINE], at Cytochrome P450 2C19, the half-inhibitory concentration (IC50) result was “Not Active” and the Ki result is listed as “Not Active”.

As for `C[C@@](Cc1ccc(O)c(O)c1)(NN)C(=O)O.O` [CARBIDOPA], the IC50 result in data set [1], in data set [2], in data set [3], in data set [4], in data set [5] and in data set [6] was “Not Active” in each case. For the same molecule, the IC50 entry on Cytochrome P450 2C19 is recorded as “Not Active”. In addition, the Ki entry in data set [1], in data set [2], in data set [3], in data set [4], in data set [5] and in data set [6] was “Not Active” in each case. For the same molecule, the Ki result on Cytochrome P450 2C19 was “Not Active”.

Consider `CN1CCN(C2=Nc3cc(Cl)ccc3Nc3ccccc32)CC1` [CLOZAPINE], for which, at Cytochrome P450 2C19, the half-maximal inhibitory concentration (IC50) entry is “Not Active” and the Ki entry was “Not Active”.

In the case of `CC(C)NC[C@@H](O)COc1cccc2ccccc12` [DEXPROPRANOLOL], on Cytochrome P450 2C19, the IC50 entry is “Not Active” and the Ki entry is recorded as “Not Active”.

For `CC(C)NC[C@H](O)COc1cccc2ccccc12` [LEVOPROPRANOLOL], on Cytochrome P450 2C19, the IC50 entry is “Not Active” and the Ki result was “Not Active”.

For `O=C(O)CCCCC1CCSS1` (stereo not drawn) [LIPOIC ACID, ALPHA], the IC50 entry in data set [1], in data set [2], in data set [3], in data set [4], in data set [5] and in data set [6] was “Not Active” each time. Further, the IC50 result on Cytochrome P450 2C19 is reported as “Not Active”. In addition, the Ki entry in data set [1], in data set [2], in data set [3], in data set [4], in data set [5] and in data set [6] was “Not Active” in each case. Further, the inhibitory constant (Ki) result at Cytochrome P450 2C19 is listed as “Not Active”.

Take `CN(C)C(=O)C(CCN1CCC(O)(c2ccc(Cl)cc2)CC1)(c1ccccc1)c1ccccc1` [LOPERAMIDE]: at Cytochrome P450 2C19, the IC50 entry is “Not Active” and the Ki entry is given as “Not Active”.

Consider `C[C@]12C=CC(=O)C=C1CC[C@@H]1[C@@H]2C(=O)C[C@@]2(C)[C@H]1CC[C@]2(O)C(=O)CO` [PREDNISONE], for which the IC50 result in data set [1], in data set [2], in data set [3], in data set [4], in data set [5] and in data set [6] was “Not Active” in each case. For the same molecule, the Ki entry in data set [1], in data set [2], in data set [3], in data set [4], in data set [5] and in data set [6] was “Not Active” each time.

Turning to `OCCOCCN1CCN(C2=Nc3ccccc3Sc3ccccc32)CC1` [QUETIAPINE], at Cytochrome P450 2C19, the IC50 result is on record as “Not Active” and the Ki entry is recorded as “Not Active”.

For `COC(=O)[C@H]1[C@H]2C[C@@H]3c4[nH]c5cc(OC)ccc5c4CCN3C[C@H]2C[C@@H](OC(=O)c2cc(OC)c(OC)c(OC)c2)[C@@H]1OC` [RESERPINE], the IC50 entry in data set [1] is “Not Active”; in data set [2] (read-out: IC50), 2050 nM; in data set [3], “Not Active”; in data set [4], “Not Active”; in data set [5], “Not Active”; in data set [6], “Not Active”. For the same molecule, the IC50 result on Cytochrome P450 2C19 is “Not Active”. Further, the Ki entry in data set [1] was “Not Active”; in data set [2] (read-out: Ki), 1990 nM; in data set [3] it was “Not Active”; in data set [4] it was “Not Active”; in data set [5] it was “Not Active”; in data set [6], “Not Active”. The Ki result at Cytochrome P450 2C19 was “Not Active”.

In the case of `O=C(O)c1ccccc1O` [SALICYLIC ACID], the IC50 entry in data set [1], in data set [2], in data set [3], in data set [4], in data set [5] and in data set [6] was “Not Active” in each case. For the same molecule, the IC50 entry against Cytochrome P450 2C19 is listed as “Not Active”. Also, the Ki entry in data set [1], in data set [2], in data set [3], in data set [4], in data set [5] and in data set [6] was “Not Active” in each case. In addition, on Cytochrome P450 2C19, the Ki result is “Not Active”.

As for `CC1CCC(NC(=O)N(CCCl)N=O)CC1` (stereo not given) [SEMUSTINE], the IC50 result is “Not Active” in data set [1]; “Not Active” in data set [2]; “Not Active” in data set [3]; 1620 nM in data set [4] (read-out: IC50); “Not Active” in data set [5]; “Not Active” in data set [6]. The IC50 result at Cytochrome P450 2C19 was “Not Active”. Moreover, the inhibition constant Ki result was “Not Active” in data set [1]; “Not Active” in data set [2]; “Not Active” in data set [3]; 1080 nM in data set [4] (read-out: Ki); “Not Active” in data set [5]; “Not Active” in data set [6]. On Cytochrome P450 2C19, the Ki result is “Not Active”.

Regarding `O=C1C[C@@H]2OCC=C3CN4CC[C@]56c7ccccc7N1[C@H]5[C@H]2[C@H]3C[C@H]46` [STRYCHNINE], the IC50 entry in data set [1], in data set [2], in data set [3], in data set [4], in data set [5] and in data set [6] was “Not Active” throughout. Moreover, the IC50 entry on Cytochrome P450 2C19 was “Not Active”. The Ki entry in data set [1], in data set [2], in data set [3], in data set [4], in data set [5] and in data set [6] was “Not Active” in each case. Further, the Ki entry at Cytochrome P450 2C19 is reported as “Not Active”.

In the case of `C[N+](C)(C)CCOC(=O)CCC(=O)OCC[N+](C)(C)C.[Cl-].[Cl-]` [SUCCINYLCHOLINE CHLORIDE], the half-maximal inhibitory concentration (IC50) result in data set [1], in data set [2], in data set [3], in data set [4], in data set [5] and in data set [6] was “Not Active” in each case. The inhibitory constant (Ki) entry in data set [1], in data set [2], in data set [3], in data set [4], in data set [5] and in data set [6] was “Not Active” in each case.

For `Nc1ccc(S(=O)(=O)NC(=O)c2ccccc2)cc1` [SULFABENZAMIDE], the IC50 result in data set [1], in data set [2], in data set [3], in data set [4], in data set [5] and in data set [6] was “Not Active” in each case. For the same molecule, the IC50 result against Cytochrome P450 2C19 is listed as “Not Active”. The Ki entry in data set [1], in data set [2], in data set [3], in data set [4], in data set [5] and in data set [6] was “Not Active” each time. The Ki entry on Cytochrome P450 2C19 is “Not Active”.

For the molecule `CCCCCCCCNC(C)C(O)c1ccc(SC(C)C)cc1` (stereo not given) [SULOCTIDIL], the IC50 in data set [2] (read-out: IC50) was 525 nM; in data set [3], “Not Active”; in data set [4] it was “Not Active”; in data set [5] (read-out: IC50), 1440 nM; in data set [6] it was “Not Active”; on Cytochrome P450 2C19, “Not Active”. Besides, the Ki was 510 nM in data set [2] (read-out: Ki); “Not Active” in data set [3]; “Not Active” in data set [4]; 366 nM in data set [5] (read-out: Ki); “Not Active” in data set [6]; “Not Active” at Cytochrome P450 2C19.

For the molecule `O=c1[nH]c(=O)n(C2CCCO2)cc1F` (stereo not given) [TEGAFUR], the IC50 result in data set [1], in data set [2], in data set [3], in data set [4], in data set [5] and in data set [6] was “Not Active” in each case. Besides, the IC50 result against Cytochrome P450 2C19 is recorded as “Not Active”. Moreover, the Ki result in data set [1], in data set [2], in data set [3], in data set [4], in data set [5] and in data set [6] was “Not Active” each time. The Ki entry on Cytochrome P450 2C19 was “Not Active”.

As for `CN1CCN(CCCN2c3ccccc3Sc3ccc(C(F)(F)F)cc32)CC1` [TRIFLUOPERAZINE], the IC50 entry in data set [1], in data set [2], in data set [3], in data set [4], in data set [5] and in data set [6] was “Not Active” throughout. The Ki result in data set [1], in data set [2], in data set [3], in data set [4], in data set [5] and in data set [6] was “Not Active” each time.
